Among the data in paper PMC5800123, “Preparation and Optimisation of Cross-Linked Enzyme Aggregates Using Native Isolate White Rot Fungi Trametes versicolor and Fomes fomentarius for the Decolourisation of Synthetic Dyes” (International Journal of Environmental Research and Public …, 2017) are Km values, retold here.

The subject of test [1] is T1, free laccase from T. versicolor (TV).
T1 construct: gene LCC1
Particulars: read-out: Km Free Laccase; free enzyme from crude culture supernatant; ABTS 0.05-2.0 mM; general assay buffer 0.1 M sodium acetate pH 4.5.

In test [2] the test system is T2, free laccase from F. fomentarius (FF).
T2 construct: gene lac
Particulars: read-out: Km Free Laccase; free enzyme from crude culture supernatant; ABTS 0.05-2.0 mM; general assay buffer 0.1 M sodium acetate pH 4.5.

The term Km denotes the concentration of substrate that gives half-maximal velocity. As for `CCn1c(=NN=c2sc3cc(S(=O)(=O)O)ccc3n2CC)sc2cc(S(=O)(=O)O)ccc21` [ABTS], the Km in test [1] was determined as 1900 µM; in test [2] it was 87 µM.
